Where “and” joins values, the source holds several entries; their conditions need not be identical. Equal entries are not always repeated. Entries after “also recorded” stand apart in the source; their conditions may differ. Where two headings read alike, the source gives them in different places.
Tests used:
Pgp = Pgp (Homo sapiens, UniProt P08183); settings: cited from earlier work
[1] = n-Octanol/water partition coefficient; settings: pH-6 phosphate buffer as the aqueous phase
[2] = test system: Pgp-expressing CR1R12 cells; assay: Dye uptake into cell monolayers, CR1R12; format: cell-based, Chinese hamster; settings: for Effect of verapamil on intracellular dye uptake: dye 1×10−5 M, 7×10−6 M verapamil 2 h before dye
[3] = Absorption and fluorescence maxima in MeOH; settings: for Fluorescence maximum λF: excitation at 532 nm; for Bathochromic shift in λmax: compared to TMR-O
[4] = Reduction potential by cyclic voltammetry; settings: in CH2Cl2, 0.2N Bu4NBF4; vs. ferrocene/ferrocinium couple (E° = +0.40 V)
AUXB1 cells [5] = assay: Dye uptake into cell monolayers, AUXB1; format: cell-based, Chinese hamster; settings: dye 1×10−5 M for 1 h, 7×10−6 M verapamil
[6] = Fluorescence quantum yields and radiative lifetimes; format: physicochemical; settings: for Quantum yield for fluorescence φF ± sd: rhodamine 6G as a standard
CR1R12 cells [7] = assay: Photoradiation of cell cultures (cell viability), CR1R12; settings: for Phototoxicity (cell viability): 5.0 J cm−2 light
Protocol: (§1) Cell lines were maintained in passage culture on 60-mm diameter polystyrene dishes (Corning Costar, Corning, N.Y.) in 4.0 mL Minimum Essential Medium (α-MEM) supplemented with 10% fetal bovine serum (FBS), 50 units mL^−1 penicillin G, 50 ug ml^−1 streptomycin and 1.0 ug mL^−1 Fungizone® (complete medium). Only cells from passages 1-10 were used for experiments. A stock of cells, passages 1-4, were maintained at −86° C. to initiate the experimental cultures. Cultures were maintained at 37° C. in a 5% CO2 humidified atmosphere (Forma Scientific, Marietta, Ohio). […] Cell counts were performed using a particle counter (Model ZM, Coulter Electronics, Hialeah, Fla.).
(§2) Photoradiation of Cell Cultures: Cell lines, AUXB1 or CR1R12, were seeded on 96-well plates in 200 μL/well α-MEM at 1-4×10^4 cells/well. Rhodamine analogues were then added directly to the cell culture medium at various concentrations and incubated for 2 h in the dark as above. The medium was then removed and 200 μL α-MEM minus FBS and phenol red (clear medium) were added to each well. One plate, with the lid removed, was then exposed to 350-750 nm light delivered at 1.4 mW cm^−2 for 1 h (5.0 J cm^−2) from a filtered halogen source while a parallel plate was kept in the dark during the irradiation period. Immediately following irradiation the clear medium was replaced with complete medium and the monolayers were incubated for an additional 24-h period. Subsequently, cells were trypsinized and counted using the Coulter counter to determine cell viability. Determination of cell viability by cell counting is performed according to an earlier method. […] Briefly, cells that detach from the surface of a culture plate stain with trypan blue, i.e. are nonviable, while all cells that remain attached to the surface exclude trypan blue, 100% viable. We were unable to seed new culture plates with cells that detached from the surface after treatment, while cells that remained attached after treatment continued to grow and multiply. Thus, we count only those cells that remain attached to the culture plate surface after treatment and compare those numbers with the cell numbers obtained from control cells, cells not exposed to either dye or light. Data are then expressed as percent cell viability, treated cell counts/control cell counts.

[8] = Quantum yield for generation of singlet oxygen (direct luminescence detection, MeOH); format: physicochemical; settings: rose bengal as a standard
[9] = pH 6
CR1R12 cells [10] = test system: CR1R12 cells
Protocol: as §1, §2

intracellular VSV = format: cell-based
Pgp in CR1R12 cells = Pgp in CR1R12 cells (Cricetulus griseus, UniProt P21448); assay: Calcein AM uptake, CR1R12; format: cell-based, Chinese hamster; settings: dye 1×10−5 M for 2 h in the dark
Pgp in CR1R12 cells, sequence (P21448 whole entry): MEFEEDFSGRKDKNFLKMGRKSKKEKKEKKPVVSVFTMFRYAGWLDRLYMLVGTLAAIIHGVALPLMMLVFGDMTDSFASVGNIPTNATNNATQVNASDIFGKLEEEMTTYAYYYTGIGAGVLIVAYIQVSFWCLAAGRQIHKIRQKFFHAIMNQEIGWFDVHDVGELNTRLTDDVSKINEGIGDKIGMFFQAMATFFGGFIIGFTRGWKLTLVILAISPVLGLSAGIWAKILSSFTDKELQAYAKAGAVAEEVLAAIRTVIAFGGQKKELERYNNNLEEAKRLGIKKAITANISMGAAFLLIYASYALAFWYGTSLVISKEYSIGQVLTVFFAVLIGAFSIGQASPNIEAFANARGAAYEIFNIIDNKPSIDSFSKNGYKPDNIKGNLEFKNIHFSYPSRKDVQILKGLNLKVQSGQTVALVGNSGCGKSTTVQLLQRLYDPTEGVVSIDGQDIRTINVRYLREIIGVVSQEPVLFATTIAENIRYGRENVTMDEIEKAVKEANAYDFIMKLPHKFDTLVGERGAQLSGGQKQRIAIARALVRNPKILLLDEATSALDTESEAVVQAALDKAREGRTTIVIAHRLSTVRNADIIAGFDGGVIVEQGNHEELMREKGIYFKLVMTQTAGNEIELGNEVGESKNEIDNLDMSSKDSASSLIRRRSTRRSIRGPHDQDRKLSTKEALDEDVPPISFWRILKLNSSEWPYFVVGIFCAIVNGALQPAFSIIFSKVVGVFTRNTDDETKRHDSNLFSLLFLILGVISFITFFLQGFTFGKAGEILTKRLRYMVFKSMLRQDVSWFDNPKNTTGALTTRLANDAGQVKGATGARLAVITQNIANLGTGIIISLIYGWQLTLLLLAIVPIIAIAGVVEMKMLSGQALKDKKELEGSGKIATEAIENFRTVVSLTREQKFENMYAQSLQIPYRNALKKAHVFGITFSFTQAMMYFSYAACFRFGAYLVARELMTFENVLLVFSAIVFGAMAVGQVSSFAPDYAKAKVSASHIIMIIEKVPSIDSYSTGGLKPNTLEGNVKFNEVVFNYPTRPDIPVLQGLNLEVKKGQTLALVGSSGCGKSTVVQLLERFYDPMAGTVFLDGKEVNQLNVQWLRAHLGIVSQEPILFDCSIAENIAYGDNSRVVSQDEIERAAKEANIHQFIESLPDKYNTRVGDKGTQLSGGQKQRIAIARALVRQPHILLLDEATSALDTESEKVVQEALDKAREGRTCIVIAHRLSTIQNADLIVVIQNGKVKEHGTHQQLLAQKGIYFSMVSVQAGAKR

extracellular VSV = format: cell-based
AUXB1 cells [11] = assay: Calcein AM uptake, AUXB1; format: cell-based, Chinese hamster; settings: higher concentrations of dye plus light exposure
AUXB1 cells [12] = test system: AUXB1 cells
Protocol: as §1
Photoradiation of Cell Cultures: Cell lines, AUXB1 or CR1R12, were seeded on 96-well plates in 200 μL/well α-MEM at 1-4×10^4 cells/well. Rhodamine analogues were then added directly to the cell culture medium at various concentrations and incubated for 2 h in the dark as above. The medium was then removed and 200 μL α-MEM minus FBS and phenol red (clear medium) were added to each well. […] Subsequently, cells were trypsinized and counted using the Coulter counter to determine cell viability. […] Data are then expressed as percent cell viability, treated cell counts/control cell counts.

[13] = over a wide range of concentrations

Pgp, sequence (P08183 whole entry): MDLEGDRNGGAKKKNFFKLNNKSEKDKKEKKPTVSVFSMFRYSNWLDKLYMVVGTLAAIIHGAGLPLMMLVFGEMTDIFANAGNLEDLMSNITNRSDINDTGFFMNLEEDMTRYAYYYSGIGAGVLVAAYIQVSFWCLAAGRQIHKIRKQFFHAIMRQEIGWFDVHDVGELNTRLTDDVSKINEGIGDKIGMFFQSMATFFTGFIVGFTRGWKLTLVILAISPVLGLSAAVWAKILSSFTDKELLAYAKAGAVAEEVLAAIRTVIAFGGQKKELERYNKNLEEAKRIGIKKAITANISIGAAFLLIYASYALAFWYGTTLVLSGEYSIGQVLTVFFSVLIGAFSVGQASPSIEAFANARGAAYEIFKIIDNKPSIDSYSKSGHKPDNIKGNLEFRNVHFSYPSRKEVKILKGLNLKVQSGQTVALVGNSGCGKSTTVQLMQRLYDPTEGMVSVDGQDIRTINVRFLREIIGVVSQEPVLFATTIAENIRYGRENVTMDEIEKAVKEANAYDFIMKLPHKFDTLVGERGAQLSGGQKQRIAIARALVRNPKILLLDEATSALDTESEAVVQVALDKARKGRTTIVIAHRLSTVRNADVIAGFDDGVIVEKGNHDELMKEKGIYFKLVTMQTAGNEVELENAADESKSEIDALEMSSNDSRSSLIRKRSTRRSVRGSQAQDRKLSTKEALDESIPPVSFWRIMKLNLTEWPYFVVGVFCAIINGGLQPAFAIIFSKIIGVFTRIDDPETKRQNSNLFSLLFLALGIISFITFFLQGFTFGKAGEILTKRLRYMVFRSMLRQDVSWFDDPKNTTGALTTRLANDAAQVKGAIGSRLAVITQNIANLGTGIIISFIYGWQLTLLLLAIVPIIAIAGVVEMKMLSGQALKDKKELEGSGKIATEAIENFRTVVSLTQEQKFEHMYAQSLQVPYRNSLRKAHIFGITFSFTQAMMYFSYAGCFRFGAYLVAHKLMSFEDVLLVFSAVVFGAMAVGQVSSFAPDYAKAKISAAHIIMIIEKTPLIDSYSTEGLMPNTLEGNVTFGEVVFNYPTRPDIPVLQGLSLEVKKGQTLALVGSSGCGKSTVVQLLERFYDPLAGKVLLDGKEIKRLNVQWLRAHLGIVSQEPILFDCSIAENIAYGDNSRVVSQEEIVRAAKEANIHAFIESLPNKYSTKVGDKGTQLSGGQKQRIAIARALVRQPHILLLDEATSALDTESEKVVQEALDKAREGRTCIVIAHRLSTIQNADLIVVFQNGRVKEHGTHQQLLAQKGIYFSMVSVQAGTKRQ

Row | Structure (SMILES) | Inhibition of Pgp function (Pgp) | Pgp transport substrate (Pgp) | Effect of verapamil on intracellular dye uptake [2] | Absorption maximum λmax [3] [nm] | log ε at λmax [3] | Fluorescence maximum λF [3] [nm] | Reduction potential E° [4] [V] | Intracellular dye accumulation in absence vs presence of verapamil (AUXB1 cells [5]) | Radiative lifetime τrad [6] | Quantum yield for fluorescence φF ± sd [6] | Phototoxicity (cell viability) (CR1R12 cells [7]; after 2 h 7×10−6 M verapamil) | Quantum yield for generation of singlet oxygen φ(1O2) ± sd [8] | n-Octanol/water partition coefficient log P [9] | Cell viability, dye alone in the dark (CR1R12 cells [10]) | Change in intracellular accumulation of CAM (Pgp in CR1R12 cells) | Bathochromic shift in λmax [3] [nm] | CAM uptake (AUXB1 cells [11]) | other results
1 | COC(=O)c1ccccc1-c1c2ccc(=N)cc-2oc2cc(N)ccc12 [Rh123, rhodamine 123] | do not inhibit Pgp function | transport substrates for Pgp | – | – | – | – | – | – | – | – | – | – | – | – | – | – | – | –
2 | CN(C)c1ccc2c(-c3ccccc3)c3ccc(=[N+](C)C)cc-3oc2c1 [TMR-O, Tetramethylrosamine, reference compound] | do not inhibit Pgp function | transport substrates for Pgp | verapamil enhances the uptake; also recorded: significantly enhanced | 552 | 4.92 | 575 | −0.94 | similar | 2.1±0.1 ns | 0.84 and 0.84 ± 0.01 | no significant phototoxicity | 0.08 and 0.08 ± 0.01 | – | – | – | – | – | n-Octanol/water partition coefficient log P [1]: 1.5; Phototoxicity (cell viability) (CR1R12 cells [7]; without verapamil): no significant phototoxicity; Cell viability, dye alone in the dark (CR1R12 cells [7]; same conditions without light): no significant loss in cell viability
3 | CN(C)c1ccc2[s+]c3ccc(N(C)C)cc3c(-c3ccccc3)c2c1.[Cl-] [TMR-S, 2,7-Bis-N,N-dimethylamino-9-phenylthioxanthylium Chloride] | – | – | significantly enhanced | 571 | 4.70 | 599 | −0.79 | similar | 1.5±0.1 ns | 0.44 and 0.44 ± 0.01 | significant cytotoxicity | 0.21 and 0.21 ± 0.02 | 1.2 | no significant loss in cell viability | no significant change | 20 | virtually abolished CAM uptake | Inactivation of intracellular VSV (intracellular VSV; 50 μM and 7.4 J cm−2): 1.5 log10; Increase in dye uptake in the presence of verapamil ([2]; dye 1×10−5 M for 1 h, 7×10−6 M verapamil): more than 3 fold; Inactivation of extracellular VSV (extracellular VSV; 5 μM, 7.4 J cm−2 light, 20% hematocrit red cells): More than 8 log10
4 | CN(C)c1ccc2[se+]c3ccc(N(C)C)cc3c(-c3ccccc3)c2c1.[Cl-] [TMR-Se, 2,7-Bis-N,N-dimethylamino-9-phenylselenoxanthylium Chloride] | – | – | – | 582 | 4.84 | 608 | −0.77 | – | approximately 50 ps | 0.009 and 0.009 ± 0.001 | significant cytotoxicity; also recorded: significant phototoxicity | 0.87 and 0.87 ± 0.01 | 1.1 | no significant loss in cell viability | no significant change | 30 | virtually abolished CAM uptake | Cell viability, dye alone in the dark (AUXB1 cells [12]): no significant loss in cell viability; Phototoxicity (cell viability) (AUXB1 cells [12]; AUXB1 cells, light, with or without 7×10−6 M verapamil): equally susceptible to phototoxicity; Inactivation of intracellular VSV (intracellular VSV; under the TMR-Se conditions of b117 (1-5 μM, 2 J cm−2)): 0.5 log10; Inactivation of extracellular VSV (extracellular VSV; 1 μM, 2 J cm−2 light, 20% hematocrit red cells): > 7.4 log10; Inactivation of extracellular VSV (extracellular VSV; 5 μM, 2 J cm−2 light, 45% hematocrit red cells): > 7.4 log10
5 | CN(C)c1ccc2sc3ccc(N(C)C)cc3c(=O)c2c1 [compound 2] | – | – | – | – | – | – | – | – | – | – | – | – | – | – | – | – | – | Intracellular virucidal activity (intracellular VSV; [13]): < 0.5 log10; Extracellular virucidal activity (extracellular VSV; [13]): < 2.5 log10

Source: patent US8158674B2, “Chalcogenoxanthylium dyes for purging blood pathogens and for photodynamic therapy” (The Research Foundation of State University of New York, priority 2004, dated 2012)
